Data set [1] deals with Brain. The experiment in a line: Drug uptake in brain of Wistar rat at 48.8 MBq, iv administered as bolus dose for 30 secs measured at 3 mins post wash out by MicroPET image analysis. In kind it is ADME, organism-based. As to conditions: in vivo, 0.05 h; call rule not given here.
The subject of data set [2] is Brain. The experiment in a line: Drug uptake in brain of rhesus monkey at 89 +/- 3 MBq, iv administered as bolus dose for 1 min measured at 5 mins post wash out by MicroPET image analysis. In kind it is ADME, organism-based, Macaca mulatta. Particulars: in vivo.
Data set [3] concerns Striatum. The experiment in a line: Drug uptake in striatum of Wistar rat brain at 48.8 MBq, iv administered as bolus dose for 30 secs measured over 120 mins post injection by MicroPET image analysis. Particulars: in vivo. In kind it is ADME, organism-based.
Data set [4] concerns Thalamus. Nature of the data set: Drug uptake in thalamus of Wistar rat brain at 48.8 MBq, iv administered as bolus dose for 30 secs measured over 120 mins post injection by MicroPET image analysis. It is filed as ADME, organism-based. Particulars: in vivo.
Data set [5] relates to Cortex. Nature of the data set: Drug uptake in cortex of Wistar rat brain at 48.8 MBq, iv administered as bolus dose for 30 secs measured over 120 mins post injection by MicroPET image analysis. Particulars: in vivo. In kind it is ADME, organism-based.
Data set [6] relates to Cerebellum. Nature of the data set: Drug uptake in cerebellum of Wistar rat brain at 48.8 MBq, iv administered as bolus dose for 30 secs measured over 120 mins post injection by MicroPET image analysis. It is filed as ADME, organism-based. Particulars: in vivo.
Data set [7] is described as follows: Drug uptake in thalamus of rhesus monkey brain at 89 +/- 3 MBq, iv administered as bolus dose for 1 min measured over 90 mins post injection by MicroPET image analysis. Particulars: in vivo. It is filed as ADME, organism-based, Macaca mulatta.
The test system of data set [8] is Striatum. Nature of the data set: Drug uptake in striatum of rhesus monkey brain at 89 +/- 3 MBq, iv administered as bolus dose for 1 min measured over 90 mins post injection by MicroPET image analysis. It is filed as ADME, organism-based, Macaca mulatta. Particulars: in vivo.
Data set [9] in a line: Drug uptake in cortex of rhesus monkey brain at 89 +/- 3 MBq, iv administered as bolus dose for 1 min measured over 90 mins post injection by MicroPET image analysis. Particulars: in vivo. In kind it is ADME, organism-based, Macaca mulatta.
Data set [10] is described as follows: Drug uptake in cerebellum of rhesus monkey brain at 89 +/- 3 MBq, iv administered as bolus dose for 1 min measured over 90 mins post injection by MicroPET image analysis. It is filed as ADME, organism-based, Macaca mulatta. Particulars: in vivo.

The structures appear in SMILES notation.

These results are taken from ChEMBL document CHEMBL3580650, “Synthesis and Initial in Vivo Studies with [(11)C]SB-216763: The First Radiolabeled Brain Penetrative Inhibitor of GSK-3” (ACS Med Chem Lett, 2015).

Take `[11CH3]n1cc(C2=C(c3ccc(Cl)cc3Cl)C(=O)NC2=O)c2ccccc21`: the SUV in data set [1] was determined as 2.5; in data set [2], 1.9. For the same molecule, the Drug uptake result in [3], in [4], in [5], in [6], in data set [7] and in data set [8] was “Active” each time. Also, the Drug uptake entry in [9] and in data set [10] was “Active” each time.
